For the test, the target named is T1, mGlyT-1b (Mus musculus, UniProt P28571).
T1 construct: host or cells: Flp-in-CHO
T1 sequence (P28571 1-651 isoform P28571-2): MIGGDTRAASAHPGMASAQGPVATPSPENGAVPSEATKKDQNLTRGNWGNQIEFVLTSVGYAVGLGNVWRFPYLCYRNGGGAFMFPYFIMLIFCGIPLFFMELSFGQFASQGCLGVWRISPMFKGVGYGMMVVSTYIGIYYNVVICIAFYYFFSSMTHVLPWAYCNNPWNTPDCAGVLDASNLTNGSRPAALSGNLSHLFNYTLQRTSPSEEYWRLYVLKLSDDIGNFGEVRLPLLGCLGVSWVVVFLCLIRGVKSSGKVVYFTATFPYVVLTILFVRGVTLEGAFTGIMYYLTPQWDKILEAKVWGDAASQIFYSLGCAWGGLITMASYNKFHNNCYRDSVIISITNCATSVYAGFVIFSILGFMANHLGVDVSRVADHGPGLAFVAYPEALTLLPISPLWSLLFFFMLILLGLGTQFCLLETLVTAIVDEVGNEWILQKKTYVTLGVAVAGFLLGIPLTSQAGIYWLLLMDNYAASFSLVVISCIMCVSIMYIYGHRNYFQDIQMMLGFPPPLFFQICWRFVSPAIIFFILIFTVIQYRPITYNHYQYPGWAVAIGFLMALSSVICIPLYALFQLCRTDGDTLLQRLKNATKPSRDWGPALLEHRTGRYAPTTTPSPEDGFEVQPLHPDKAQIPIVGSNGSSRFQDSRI
Nature of the test: Glycine uptake inhibition assay (mGlyT-1b). Type of test: cell-based. The note with it: inhibition of [3H]-glycine uptake in Flp-in-CHO cells transfected with mGlyT-1b cDNA; 20 min preincubation at 22° C.; read-out: IC50 (μM) at GlyT-1. Here is the method:
DMEM complete medium: Nutrient mixture F-12 (Gibco Life-technologies), fetal bovine serum (FBS) 5%, (Gibco life technologies), Penicillin/Streptomycin1% (Gibco life technologies), Hygromycin 0.6 mg/ml (Gibco life technologies), Glutamine 1 mM Gibco life technologies)
Uptake buffer (UB): 150 mM NaCl, 10 mM Hepes-Tris, pH 7.4, 1 mM CaCl2, 2.5 mM KCl, 2.5 mM MgSO4, 10 mM (+) D-glucose.
Flp-in™-CHO (Invitrogen Cat n^o R758-07) cells stably transfected with mGlyT1b cDNA.
Glycine Uptake Inhibition Assay (mGlyT-1b)
On day 1 mammalian cells, (Flp-in™-CHO), transfected with mGlyT-1b cDNA, were plated at the density of 40,000 cells/well in complete F-12 medium, without hygromycin in 96-well culture plates. On day 2, the medium was aspirated, and the cells were washed twice with uptake buffer (UB). The cells were then incubated for 20 min at 22° C. with either (i) no potential competitor, (ii) 10 mM non-radioactive glycine, (iii) a concentration of a potential inhibitor. A range of concentrations of the potential inhibitor was used to generate data for calculating the concentration of inhibitor resulting in 50% of the effect (e.g. IC50, the concentration of the competitor inhibiting glycine uptake of 50%). A solution was then immediately added containing [^3H]-glycine 60 nM (11-16 Ci/mmol) and 25 μM non-radioactive glycine. The plates were incubated with gentle shaking, and the reaction was stopped by aspiration of the mixture and washing (three times) with ice-cold UB. The cells were lysed with scintillation liquid, shaken 3 hours, and the radioactivity in the cells was counted using a scintillation counter.

These results are taken from US8188139B2, “Heterocyclic-substituted phenyl methanones” (Hoffman-La Roche Inc., priority 2005, dated 2012).

Each structure is given as a SMILES string.

For the molecule `CS(=O)(=O)c1ccc(OCC(F)(F)C(F)F)c(C(=O)N2Cc3cc(C(F)(F)F)cnc3C2)c1` [Example 158, [5-Methanesulfonyl-2-(2,2,3,3-tetrafluoro-propoxy)-phenyl]-(3-trifluoromethyl-5,7-dihydro-pyrrolo[3,4-b]pyridin-6-yl)-methanone], the IC50 amounted to 0.024 µM. For `C[C@H](Oc1ccc(S(C)(=O)=O)cc1C(=O)N1Cc2ccc(C3CCCOC3)cc2C1)C(F)(F)F` (mixture of isomers) [Example 312, [5-Methanesulfonyl-2-((S)-2,2,2-trifluoro-1-methyl-ethoxy)-phenyl]-[5-(tetrahydro-pyran-3-yl)-1,3-dihydro-isoindol-2-yl]-methanone], the IC50 is 0.032 µM. For the molecule `CC(C)Oc1ccc(S(C)(=O)=O)cc1C(=O)N1Cc2cc(F)c(OC3CCOCC3)cc2C1` [Example 378, [5-Fluoro-6-(tetrahydro-pyran-4-yloxy)-1,3-dihydro-isoindol-2-yl]-(2-isopropoxy-5-methanesulfonyl-phenyl)-methanone], the half-inhibitory concentration (IC50) worked out at 0.035 µM. In the case of `C[C@H](Oc1ccc(S(C)(=O)=O)cc1C(=O)N1Cc2ccc(-c3cccnc3)cc2C1)C(F)(F)F` [Example 317] it was 0.024 µM; in that of `CC(C)Oc1ccc(S(C)(=O)=O)cc1C(=O)N1Cc2cc(Cl)c(OC3CCOCC3)cc2C1` [Example 376, [5-Chloro-6-(tetrahydro-pyran-4-yloxy)-1,3-dihydro-isoindol-2-yl]-(2-isopropoxy-5-methanesulfonyl-phenyl)-methanone], 0.016 µM. For the molecule `CS(=O)(=O)c1ccc(OCC2CCC2)c(C(=O)N2Cc3cnc(C(F)(F)F)cc3C2)c1` [Example 118, (2-Cyclobutyl-methoxy-5-methane-sulfonyl-phenyl)-(6-trifluoromethyl-1,3-dihydro-pyrrolo [3,4-c]pyridin-2-yl)-methanone], the half-inhibitory concentration (IC50) was 0.038 µM. In the case of `CS(=O)(=O)c1ccc(-c2ccc(F)cc2)c(C(=O)N2Cc3cc(Cl)c(N4CCOCC4)cc3C2)c1` [Example 256, (5-Chloro-6-morpho-lin-4-yl-1,3-dihydro-isoindol-2-yl)-(4′-fluoro-4-methane-sulfonyl-biphenyl-2-yl)-methanone], the IC50 was 0.032 µM. `Cc1cc(-c2ccc3c(c2)CN(C(=O)c2cc(S(C)(=O)=O)ccc2O[C@@H](C)C(F)(F)F)C3)ccn1` [Example 169, [5-Methanesulfonyl-2-((S)-2,2,2-trifluoro-1-methyl-ethoxy)-phenyl]-[5-(2-methyl-pyridin-4-yl)-1,3-dihydro-isoindol-2-yl]-methanone]: the IC50 came out at 0.003 µM. The result for `CS(=O)(=O)c1ccc(-c2ccccc2)c(C(=O)N2Cc3cc(Cl)c(N4CCOCC4)cc3C2)c1` [Example 252, (5-Chloro-6-morpho-lin-4-yl-1,3-dihydro-isoindol-2-yl)-(4-methanesulfonyl-biphenyl-2-yl)-methanone] reads 0.033 µM. Regarding `Cc1cc2c(cc1Cl)CN(C(=O)c1cc(S(C)(=O)=O)ccc1O[C@H](C)C(F)(F)F)C2` [Example 49, (5-Chloro-6-methyl-1,3-dihydro-isoindol-2-yl)-[5-methanesulfonyl-2-((R)-2,2,2-trifluoro-1-methyl-ethoxy)-phenyl]-methanone], the IC50 amounted to 0.034 µM.

With `C[C@H](Oc1ccc(S(C)(=O)=O)cc1C(=O)N1Cc2cc(F)c(OC3CCOCC3)cc2C1)C(F)(F)F` [Example 377, [5-Fluoro-6-(tetrahydro-pyran-4-yloxy)-1,3-dihydro-isoindol-2-yl]-[5-methanesulfonyl-2-((S)-2,2,2-trifluoro-1-methyl-ethoxy)-phenyl]-methanone], the IC50 was 0.007 µM. On to `CS(=O)(=O)c1ccc(OCC(F)(F)C(F)(F)F)c(C(=O)N2Cc3cc(F)c(N4CCOCC4)cc3C2)c1` [Example 372, (5-Fluoro-6-morpholin-4-yl-1,3-dihydro-isoindol-2-yl)-[5-methanesulfonyl-2-(2,2,2,3,3-pentafluoropropoxy)-phenyl]-methanone], for which the concentration for half-maximal inhibition (IC50) worked out at 0.004 µM. On to `COc1cc2c(cc1Cl)CN(C(=O)c1cc(S(C)(=O)=O)ccc1OCC(C)C)C2` [Example 221, (5-Chloro-6-methoxy-1,3-dihydro-isoindol-2-yl)-(2-isobutoxy-5-methanesulfonyl-phenyl)-methanone], for which the concentration for half-maximal inhibition (IC50) was determined as 0.022 µM. Take `CS(=O)(=O)c1ccc(OCC(F)(F)C(F)(F)F)c(C(=O)N2Cc3cc(F)c(OC4CCOCC4)cc3C2)c1` [Example 379, [5-Fluoro-6-(tetrahydro-pyran-4-yloxy)-1,3-dihydro-isoindol-2-yl]-[5-methanesulfonyl-2-(2,2,3,3,3-pentafluoro-propoxy)-phenyl]-methanone]: the IC50 was determined as 0.007 µM. The result for `Cc1nc2c(cc1C(F)(F)F)CN(C(=O)c1cc(S(C)(=O)=O)ccc1O[C@@H](C)C(F)(F)F)C2` [Example 163, [5-Methanesulfonyl-2-((S)-2,2,2-trifluoro-1-methyl-ethoxy)-phenyl]-(2-methyl-3-trifluoromethyl-5,7-dihydro-pyrrolo[3,4-b]pyridin-6-yl)-methanone] reads 0.045 µM. In the case of `CC(C)Oc1ccc(S(C)(=O)=O)cc1C(=O)N1Cc2cc(Cl)c(Cl)cc2C1` [Example 5, (5,6-Dichloro-1,3-dihydro-isoindol-2-yl)-(2-isopropoxy-5-methanesulfonyl-phenyl)-methanone], the IC50 came to 0.042 µM.

As for `C[C@H](Oc1ccc(S(C)(=O)=O)cc1C(=O)N1Cc2cc(-c3ccc(F)cc3)cnc2C1)C(F)(F)F` [Example 322, [3-(4-Fluoro-phenyl)-5,7-dihydro-pyrrolo[3,4-b]pyridin-6-yl]-[5-methanesulfonyl-2-((S)-2,2,2-trifluoro-1-methyl-ethoxy)-phenyl]-methanone], the IC50 was found to be 0.012 µM. For `CS(=O)(=O)c1ccc(OCC(F)(F)C(F)(F)F)c(C(=O)N2Cc3ccc(C4CCOC4)cc3C2)c1` (racemic) [Example 361, rac-[5-Methanesulfonyl-2-(2,2,3,3,3-pentafluoro-propoxy)-phenyl]-[5-(tetrahydro-furan-3-yl)-1,3-dihydro-isoindol-2-yl]-methanone], the IC50 turned out to be 0.002 µM.

With `COc1cccc(-c2ccc3c(c2)CN(C(=O)c2cc(S(C)(=O)=O)ccc2O[C@@H](C)C(F)(F)F)C3)c1` [Example 340, [5-Methanesulfonyl-2-(2,2,2-trifluoro-1-methyl-ethoxy)-phenyl]-[5-(3-methoxy-phenyl)-1,3-dihydro-isoindol-2-yl]-methanone], the half-maximal inhibitory concentration (IC50) turned out to be 0.025 µM. Turning to `C[C@H](Oc1ccc(S(C)(=O)=O)cc1C(=O)N1Cc2ccc(C3(F)COC3)cc2C1)C(F)(F)F` [Example 368, [5-(3-Fluoro-oxetan-3-yl)-1,3-dihydro-isoindol-2-yl]-[5-methanesulfonyl-2-((S)-2,2,2-trifluoro-1-methyl-ethoxy)-phenyl]-methanone], the IC50 came out at 0.005 µM. In the case of `CCSc1cc2c(cc1Cl)CN(C(=O)c1cc(S(C)(=O)=O)ccc1O[C@H](C)C(F)(F)F)C2` [Example 59, (5-Chloro-6-ethylsulfanyl-1,3-dihydro-isoindol-2-yl)-[5-methanesulfonyl-2-((R)-2,2,2-trifluoro-1-methyl-ethoxy)-phenyl]-methanone], the half-maximal inhibitory concentration (IC50) is 0.036 µM. For `CS(=O)(=O)c1ccc(OCC(F)(F)C(F)F)c(C(=O)N2Cc3cnc(C(F)(F)F)cc3C2)c1` [Example 156, [5-Methanesulfonyl-2-(2,2,3,3-tetrafluoro-propoxy)-phenyl]-(6-trifluoromethyl-1,3-dihydro-pyrrolo[3,4-c]pyridin-2-yl)-methanone], the 50% inhibitory concentration (IC50) came to 0.047 µM. Regarding `C[C@H](Oc1ccc(S(C)(=O)=O)cc1C(=O)N1Cc2ccc(OC3CCOCC3)cc2C1)C(F)(F)F` [Example 367, [5-Methanesulfonyl-2-((S)-2,2,2-trifluoro-1-methyl-ethoxy)-phenyl]-[5-(tetrahydro-pyran-4-yloxy)-1,3-dihydro-isoindol-2-yl]-methanone], the IC50 was 0.0015 µM.

`C[C@H](Oc1ccc(S(C)(=O)=O)cc1C(=O)N1Cc2ccc(-n3cccn3)cc2C1)C(F)(F)F` [Example 347]: the IC50 was 0.043 µM.

The IC50 is the midpoint of a concentration-inhibition curve.
